# Assay results: article PMC11676996, “Inhibitory Effects of Sulfur Derivatives on Leishmania tarentolae Cell Viability and Secreted Acid Phosphatase In Vitro” (Microorganisms, 2024)
# Test system: T1, secreted acid phosphatase (SAP)
# T1 construct: native enzyme activity in cell-free culture supernatant
# Experiment: pNPP phosphatase assay, compound added directly to control cell-free supernatant, dose-dependent
# Assay type: biochemical, Leishmania tarentolae
compound,measurement,value
COc1cc(/C=N/NC(=S)SC)cc(OC)c1O [ZZ1-04],IC50,60 to 80 µM
